Patent US20260183408A1, “POLYPEPTIDE AND USE THEREOF” (SHENZHEN CHENYANG BIOLOGICAL TECHNOLOGY CO., LTD, priority 2022, published 2026)

Assays:
SPS mice = test: Fear conditioning, safety learning and recall tests (freezing level); type: in vivo; conditions: treated for 1.5 h, 3 nM intraperitoneally, 100 μl/10 g mouse (FIG. 7 right)
Description: The SPS model was established with male Balb/c mice. The modified SPS protocol was used to comprise a series of stress exposure: 2 hours of restraint stress (inside a 50-mL plastic tube having several air holes), 3 min of rest, 12 min of forced swimming in a transparent glass tank (at about 24° C.), 15 min of rest (drying under a warming lamp), 20 min of predator (rat) odor exposure, followed by ether anesthesia (until the mice completely lost consciousness). Thereafter, the mice are transferred back to their cages with fresh bedding. The control mice were housed in groups and received no stress exposure. After the model establishment, all mice were raised undisturbed for one week.
The fear conditioning, safety learning, and recall tests were carried out in two contexts (the fear conditioning and safety learning tests were carried out in context A; and the recall test was carried out in context B). The shapes and smells provided in contexts A and B were different. Indoor floors were cleaned with 1% acetic acid or 75% ethanol prior to testing. […] After the experiment was completed, the freezing level was manually calculated based on the recorded video. The criterion for a freezing behavior is that if no movement other than normal breathing of a mouse was detected within 2 seconds, then the mouse was considered freezing. […]

CRS mice [1] = test: Forced swimming test (FST); type: in vivo, mouse; conditions: single intraperitoneal 3 nmol/g, 1 hour after treatment, compared with TAT-treated mice (FIG. 12)
Description: (§1) The C57BL/6J mice were horizontally fixed for 6 h (from 10 to 16 o'clock) in a first acrylic restraint which is cylindrical and flat-bottomed (25×90 mm) every day for 2 weeks. The filter had several slots which could adapt to the size of each mouse to firmly restrain the mouse and inhibit body movements of the limb and trunk without causing pain. Immediately after being restrained, the mice were sent back to their cages. Unrestrained mice (control) stayed in their cages when no CRS procedure was performed. Neither the control mice nor the CRS mice could have access to food and water during the CRS exposure.
(§2) The C57BL/6J mice were subjected to various stress including restraint (for 4 h), cage tilting (for 45 times, with 12 h each time), light-dark cycle reversal (once), flash (for 12 h), and dirty cage (for 2 times, with 14 h each time). The protocol lasted 6 weeks. Control mice were not subjected to corresponding stress.
(§3) The mice were treated with TAT or TAT-D2R-KL (single intraperitoneal administration at 3 nmol/g in both cases). […]
FST: The mice were placed in a cylinder (having a height of 70 cm and a diameter of 30 cm) made of organic glass and filled with water (with water temperature at 23±1° C.), wherein the water level was more than 30 cm from the bottom. The mice were recorded in video for 5 min, then the video was analyzed, and the immobility time was recorded. […]

CRS mice [2] = test: Sucrose preference test (SPT); type: in vivo, mouse; conditions: single intraperitoneal 3 nmol/g, compared with TAT-treated mice (FIG. 12)
Description: as §1, §2, §3
SPT (Sucrose preference test): A two-bottle choice paradigm was adopted. […] Finally, the volume of consumed water or sucrose solution was recorded and calculation was carried out with the following equation (I): […]

CRS mice [3] = test: Open field test (OFT, time spent in the central area); type: in vivo, mouse; conditions: single intraperitoneal 3 nmol/g, 1 hour later (FIG. 13)
Description: as §1
In order to evaluate the anti-anxiety-like effect of the polypeptide of the present invention, a CRS mouse model was established using the method in Example 6. The mice were treated with TAT or TAT-D2R-KL (single intraperitoneal administration at 3 nmol/g in both cases), and 1 hour later, an open field test (OFT) for testing the time spent in the central area and an elevated plus maze (EPM) test were performed. […]
OFT (for testing the time spent in the central area): The bottom of the open field was divided into 25 squares of equal area, with the 9 squares in the middle defined as the central area. One hour after the polypeptide treatment, the mice were placed in the central area to be recorded for 5 min, and the time spent in the central area by the mice was recorded.

CRS mice [4] = test: Elevated plus maze (EPM) test; type: in vivo, mouse; conditions: single intraperitoneal 3 nmol/g, 1 hour later (FIG. 14)
Description: as §1
In order to evaluate the anti-anxiety-like effect of the polypeptide of the present invention, a CRS mouse model was established using the method in Example 6. […]
EPM: The device consisted of two open arms (25 cm×8 cm) and two closed arms (25 cm×8 cm) with the intersection as the central area (8 cm×8 cm), elevated 40 cm above the ground. One hour after the polypeptide treatment, the mice were placed in the central area facing an open arm, and their free movements were recorded for 5 min. […] The time spent in an open arm, the time spent in a closed arm, and the total moving distance of the mice were recorded.

TAT-D2R-KL: C-terminus of the KL (K226-L240) region of D2R fused to the transduction domain of HIV-1 Tat protein (SEQ ID NO: 5)
freezing level (SPS mice): reduced | immobility time (FST) (CRS mice [1]): significantly reduced | sucrose preference (CRS mice [2]): significantly enhanced | time spent in the central area (CRS mice [3]): significantly increased | time spent in an open arm (CRS mice [4]): significantly increased
